According to patent US6737383B1, “Herbicidal oxadiazolidines” (priority 1999, dated 2004):

Experiments:
bedstraw = test: Test B pre/postemergence bedstraw; assay type: in vivo, Galium aparine
Summary of the method: (§1)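 Response is a visual 0-to-10 score relative to untreated plants, where 0 means no effect and 10 means complete control, taken twelve to sixteen days after application. Treatments went onto soil at planting and onto foliage of 1- to 4-leaf plants, using a surfactant-containing non-phytotoxic solvent.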

soybean = test: Test B pre/postemergence soybean; assay type: in vivo, Glycine max
Summary of the method: as §1

morningglory = test: Test B pre/postemergence morningglory; assay type: in vivo, Ipomoea hederacea
Summary of the method: as §1

velvetleaf = test: Test B pre/postemergence velvetleaf; assay type: in vivo, Abutilon theophrasti
Summary of the method: as §1

pigweed = test: Test B pre/postemergence pigweed; assay type: in vivo, Amaranthus retroflexus
Summary of the method: as §1

rape = test: Test B pre/postemergence rape; assay type: in vivo, Brassica napus
Summary of the method: as §1

cocklebur = test: Test B pre/postemergence cocklebur; assay type: in vivo, Xanthium strumarium
Summary of the method: as §1

giant foxtail = test: Test B pre/postemergence giant foxtail; assay type: in vivo, Setaria faberii
Summary of the method: as §1

wild oat = test: Test B pre/postemergence wild oat; assay type: in vivo, Avena fatua
Summary of the method: as §1

purple nutsedge = test: Test B pre/postemergence purple nutsedge; assay type: in vivo, Cyperus rotundus
Summary of the method: as §1

corn = test: Test B pre/postemergence corn; assay type: in vivo, Zea mays
Summary of the method: as §1

blackgrass = test: Test B pre/postemergence blackgrass; assay type: in vivo, Alopecurus myosuroides
Summary of the method: as §1

sugar beet = test: Test B pre/postemergence sugar beet; assay type: in vivo, Beta vulgaris
Summary of the method: as §1

surinam grass = test: Test B pre/postemergence surinam grass; assay type: in vivo, Brachiaria decumbens
Summary of the method: as §1

wheat = test: Test B pre/postemergence wheat; assay type: in vivo, Triticum aestivum
Summary of the method: as §1

crabgrass = test: Test B pre/postemergence crabgrass; assay type: in vivo, Digitaria sanguinalis
Summary of the method: as §1

[1] = Postemergence, Rate 62 g/ha, scale of 0 to 10, 0 is no effect, 10 is complete control
[2] = Postemergence, Rate 125 g/ha, scale 0 to 10, 0 is no effect, 10 is complete control
[3] = Postemergence, Rate 500 g/ha, scale 0 to 10, 0 is no effect, 10 is complete control
[4] = Preemergence, Rate 125 g/ha, scale 0 to 10, 0 is no effect, 10 is complete control
[5] = Preemergence, Rate 500 g/ha, scale of 0 to 10 where 0 is no effect and 10 is complete control
[6] = Preemergence, Rate 62 g/ha, scale 0 to 10 (0 no effect, 10 complete control)
[7] = Rate 250 g/ha, Postemergence, scale of 0 to 10 where 0 is no effect and 10 is complete control

COC(=O)CCCn1c(=O)on(C(=O)N(c2ccc(Cl)cc2)C(C)C)c1=O [Compound 543]
Bedstraw plant response rating (bedstraw; [1]): 0
Bedstraw plant response rating (bedstraw; [2]): 0
Plant response rating, Bedstraw (bedstraw; [3]): 2
Bedstraw plant response rating (bedstraw; [4]): 0
Bedstraw plant response rating (0 to 10 scale) (bedstraw; Preemergence, Rate 250 g/ha): 0
Bedstraw plant response rating (bedstraw; [5]): 0
Soybean plant response rating (soybean; [1]): 0
Soybean plant response rating (soybean; [2]): 2
Plant response rating, Soybean (soybean; [3]): 2
Soybean plant response rating (soybean; [6]): 0
Soybean plant response rating (soybean; [4]): 0
Soybean plant response rating (0 to 10 scale) (soybean; Preemergence, Rate 250 g/ha): 2
Soybean plant response rating (soybean; [5]): 2
Plant response rating, Soybean (soybean; [7]): 2
Morningglory plant response rating (morningglory; [1]): 1
Morningglory plant response rating (morningglory; [2]): 2
Plant response rating, Morningglory (morningglory; [3]): 7
Morningglory plant response rating (morningglory; [6]): 0
Morningglory plant response rating (morningglory; [4]): 0
Morningglory plant response rating (0 to 10 scale) (morningglory; Preemergence, Rate 250 g/ha): 0
Morningglory plant response rating (morningglory; [5]): 0
Plant response rating, Morningglory (morningglory; [7]): 4
Velvetleaf plant response rating (velvetleaf; [1]): 0
Velvetleaf plant response rating (velvetleaf; [2]): 0
Plant response rating, Velvetleaf (velvetleaf; [3]): 3
Velvetleaf plant response rating (velvetleaf; [6]): 0
Velvetleaf plant response rating (velvetleaf; [4]): 0
Velvetleaf plant response rating (0 to 10 scale) (velvetleaf; Preemergence, Rate 250 g/ha): 0
Velvetleaf plant response rating (velvetleaf; [5]): 0
Plant response rating, Velvetleaf (velvetleaf; [7]): 0
Redroot pigweed plant response rating (pigweed; [1]): 0
Redroot pigweed plant response rating (pigweed; [2]): 0
Plant response rating, Redroot pigweed (pigweed; [3]): 0
Redroot pigweed plant response rating (pigweed; [6]): 7
Redroot pigweed plant response rating (pigweed; [4]): 7
Redroot pigweed plant response rating (0 to 10 scale) (pigweed; Preemergence, Rate 250 g/ha): 9
Plant response rating, Redroot pigweed (pigweed; [7]): 0
Rape plant response rating (rape; [1]): 0
Rape plant response rating (rape; [2]): 0
Plant response rating, Rape (rape; [3]): 0
Rape plant response rating (rape; [6]): 0
Rape plant response rating (rape; [4]): 0
Rape plant response rating (0 to 10 scale) (rape; Preemergence, Rate 250 g/ha): 0
Rape plant response rating (rape; [5]): 0
Plant response rating, Rape (rape; [7]): 0
Cocklebur plant response rating (cocklebur; [1]): 0
Cocklebur plant response rating (cocklebur; [2]): 0
Plant response rating, Cocklebur (cocklebur; [3]): 1
Cocklebur plant response rating (cocklebur; [4]): 0
Cocklebur plant response rating (0 to 10 scale) (cocklebur; Preemergence, Rate 250 g/ha): 0
Cocklebur plant response rating (cocklebur; [5]): 10
Plant response rating, Cocklebur (cocklebur; [7]): 0
Giant foxtail plant response rating (giant foxtail; [1]): 0
Giant foxtail plant response rating (giant foxtail; [2]): 0
Plant response rating, Giant foxtail (giant foxtail; [3]): 3
Giant foxtail plant response rating (giant foxtail; [6]): 3
Giant foxtail plant response rating (giant foxtail; [4]): 3
Giant foxtail plant response rating (0 to 10 scale) (giant foxtail; Preemergence, Rate 250 g/ha): 9
Giant foxtail plant response rating (giant foxtail; [5]): 9
Plant response rating, Giant foxtail (giant foxtail; [7]): 0
Wild oats plant response rating (wild oat; [1]): 0
Wild oats plant response rating (wild oat; [2]): 0
Plant response rating, Wild oats (wild oat; [3]): 3
Wild oats plant response rating (wild oat; [6]): 0
Wild oats plant response rating (wild oat; [4]): 0
Wild oats plant response rating (0 to 10 scale) (wild oat; Preemergence, Rate 250 g/ha): 0
Wild oats plant response rating (wild oat; [5]): 0
Plant response rating, Wild oats (wild oat; [7]): 0
Nutsedge plant response rating (purple nutsedge; [1]): 0
Nutsedge plant response rating (purple nutsedge; [2]): 0
Plant response rating, Nutsedge (purple nutsedge; [3]): 0
Nutsedge plant response rating (purple nutsedge; [6]): 0
Nutsedge plant response rating (purple nutsedge; [4]): 0
Nutsedge plant response rating (0 to 10 scale) (purple nutsedge; Preemergence, Rate 250 g/ha): 0
Nutsedge plant response rating (purple nutsedge; [5]): 8
Plant response rating, Nutsedge (purple nutsedge; [7]): 0
Corn plant response rating (corn; [1]): 0
Corn plant response rating (corn; [2]): 0
Plant response rating, Corn (corn; [3]): 0
Corn plant response rating (corn; [6]): 0
Corn plant response rating (corn; [4]): 0
Corn plant response rating (0 to 10 scale) (corn; Preemergence, Rate 250 g/ha): 0
Corn plant response rating (corn; [5]): 0
Plant response rating, Corn (corn; [7]): 0
Blackgrass plant response rating (blackgrass; [1]): 0
Blackgrass plant response rating (blackgrass; [2]): 0
Plant response rating, Blackgrass (blackgrass; [3]): 2
Blackgrass plant response rating (blackgrass; [6]): 0
Blackgrass plant response rating (blackgrass; [4]): 0
Blackgrass plant response rating (0 to 10 scale) (blackgrass; Preemergence, Rate 250 g/ha): 0
Blackgrass plant response rating (blackgrass; [5]): 2
Plant response rating, Blackgrass (blackgrass; [7]): 0
Sugarbeets plant response rating (sugar beet; [1]): 0
Sugarbeets plant response rating (sugar beet; [2]): 0
Plant response rating, Sugarbeets (sugar beet; [3]): 3
Sugarbeets plant response rating (sugar beet; [6]): 4
Sugarbeets plant response rating (sugar beet; [4]): 5
Sugarbeets plant response rating (0 to 10 scale) (sugar beet; Preemergence, Rate 250 g/ha): 6
Plant response rating, Sugarbeets (sugar beet; [7]): 2
B. signalgrass plant response rating (surinam grass; [1]): 0
B. signalgrass plant response rating (surinam grass; [2]): 0
Plant response rating, B. signalgrass (surinam grass; [3]): 3
B. signalgrass plant response rating (surinam grass; [6]): 0
B. signalgrass plant response rating (surinam grass; [4]): 4
B. signalgrass plant response rating (0 to 10 scale, 0 is no effect, 10 is complete control) (surinam grass; Preemergence, Rate 250 g/ha): 4
B. signalgrass plant response rating (surinam grass; [5]): 6
Plant response rating, B. signalgrass (surinam grass; [7]): 3
Wheat plant response rating (wheat; [1]): 0
Wheat plant response rating (wheat; [2]): 0
Plant response rating, Wheat (wheat; [3]): 0
Wheat plant response rating (wheat; [6]): 0
Wheat plant response rating (wheat; [4]): 0
Wheat plant response rating (0 to 10 scale) (wheat; Preemergence, Rate 250 g/ha): 0
Wheat plant response rating (wheat; [5]): 0
Plant response rating, Wheat (wheat; [7]): 0
Crabgrass plant response rating (crabgrass; [1]): 0
Plant response rating, Crabgrass (crabgrass; [3]): 7
Crabgrass plant response rating (crabgrass; [6]): 4
Crabgrass plant response rating (crabgrass; [4]): 4
Crabgrass plant response rating (0 to 10 scale) (crabgrass; Preemergence, Rate 250 g/ha): 6
Plant response rating, Crabgrass (crabgrass; [7]): 3
